Source: EP4745134A1 (Jiangsu Yahong Meditech Co., Ltd., priority 2023, dated 2025)
pIC50: −log10 of the molar value. Where two headings read alike, the source gives them in different places.

Experiments:
PRMT5-MTA = PRMT5-MTA (Homo sapiens, UniProt O14744); assay: Enzymatic inhibitory activity against PRMT5-MTA (AlphaScreen); format: biochemical
Outline: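 PRMT5/[…] (1 nM) was preincubated for 30 min at room temperature with 1 µM […] and 2.5 µM SAM, then exposed to compound (10-point, 3-fold from 1000 nM) for 15 min at 23 °C. Histone H4 substrate (5 nM) was added and reacted for 45 min at 23 °C. Symmetric dimethyl-R3 H4 was detected by AlphaScreen and IC50 calculated.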

HCT116 MTAP KO cells = assay: Inhibitory activity against cell proliferation (CellTiter Glo, 6 days), HCT116 MTAP KO; format: cell-based; details: for pIC50: Homo sapiens, HCT-116, 144 h, HCT116 MTAP KO cells, 6 days, CellTiter Glo, read-out: HCT116 MTAP KO IC50; for Selectivity HCT 116-WT/ HCT116 MTAP KO: ratio of IC50 HCT116-WT / HCT116 MTAP KO
Outline: (§1)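 HCT116 wild-type or MTAP-knockout cells (250/well, McCoy's 5A + 10% FBS) treated after overnight culture with 8-point 4-fold dilutions from 10000 nM for 6 days at 37 °C. Viability read by CellTiter Glo luminescence on day 7; IC50 calculated against DMSO controls.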

HCT116-WT cells = assay: Inhibitory activity against cell proliferation (CellTiter Glo, 6 days), HCT116-WT; format: cell-based; details: 144 h, HCT116-WT cells, 6 days, CellTiter Glo; read-out: HCT116-WT IC50
Outline: as §1

Sequence of PRMT5-MTA (O14744 whole entry): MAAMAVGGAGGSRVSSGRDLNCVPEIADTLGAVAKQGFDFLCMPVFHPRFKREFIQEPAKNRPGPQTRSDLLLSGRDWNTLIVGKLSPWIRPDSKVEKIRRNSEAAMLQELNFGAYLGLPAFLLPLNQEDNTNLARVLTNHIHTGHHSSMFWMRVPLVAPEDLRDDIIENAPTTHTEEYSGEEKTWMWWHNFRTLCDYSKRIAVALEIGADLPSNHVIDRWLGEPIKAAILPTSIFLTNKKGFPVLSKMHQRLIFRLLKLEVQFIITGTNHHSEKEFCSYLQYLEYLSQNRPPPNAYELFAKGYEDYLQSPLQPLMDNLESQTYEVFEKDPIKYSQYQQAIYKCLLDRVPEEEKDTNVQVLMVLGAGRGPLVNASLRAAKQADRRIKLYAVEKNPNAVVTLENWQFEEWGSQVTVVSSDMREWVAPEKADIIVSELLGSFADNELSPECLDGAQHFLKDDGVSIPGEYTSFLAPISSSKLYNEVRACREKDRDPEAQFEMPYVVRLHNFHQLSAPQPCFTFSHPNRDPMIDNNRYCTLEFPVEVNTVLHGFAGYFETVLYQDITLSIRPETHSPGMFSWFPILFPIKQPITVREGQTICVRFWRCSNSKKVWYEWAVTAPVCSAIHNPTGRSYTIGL
Sequence of PRMT5-MTA (Q9BQA1 whole entry partner): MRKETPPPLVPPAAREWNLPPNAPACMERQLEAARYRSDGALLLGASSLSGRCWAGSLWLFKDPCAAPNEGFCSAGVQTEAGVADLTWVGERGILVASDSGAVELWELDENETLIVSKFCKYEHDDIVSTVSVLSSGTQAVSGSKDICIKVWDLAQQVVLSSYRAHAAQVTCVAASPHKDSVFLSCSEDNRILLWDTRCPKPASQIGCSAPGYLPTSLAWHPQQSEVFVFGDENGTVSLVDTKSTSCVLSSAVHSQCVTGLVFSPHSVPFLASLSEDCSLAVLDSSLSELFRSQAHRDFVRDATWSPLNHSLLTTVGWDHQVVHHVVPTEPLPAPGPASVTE

| SMILES | pIC50 (PRMT5-MTA; read-out: IC50) | pIC50 (HCT116 MTAP KO cells) | Selectivity HCT 116-WT/ HCT116 MTAP KO (HCT116 MTAP KO cells) | pIC50 (HCT116-WT cells) | pIC50 (PRMT5-MTA) |
| --- | --- | --- | --- | --- | --- |
| Cc1cc2nc(N)c3cnn(C)c3c2cc1C(=O)N1CCCCN1c1ccc(C(F)(F)F)cn1 [Example 343, (4-amino-1,7-dimethyl-1H-pyrazolo[4,3-c]quinolin-8-yl)(2-(5-(trifluoromethyl)pyridin-2-yl)tetrahydropyridazin-1 (2H)-yl) methanone] | 8.41 | 6.67 | 22.90 | 5.31 | – |
| Cn1ncc2c(N)nc3cc(Cl)c(C(=O)N4CC5(CC5)CN4c4ncc(Br)cc4F)cc3c21 [Example 345, (4-amino-7-chloro-1-methyl-1H-pyrazolo [4,3-c]quinolin-8-yl)(6-(5-bromo-3-fluor opyridin-2-yl)-5,6-diazaspiro[2.4]heptan-5-yl)methanone] | 8.36 | 7.36 | 17.57 | 6.11 | – |
| Cc1cc2nc(N)c3cnn(C)c3c2cc1C(=O)N1CC(C)CN1c1ccc(F)cn1 (centres unmarked) [Example 346, (4-amino-1,7-dimethyl-1H-pyrazolo[4,3-c]quinolin-8-yl)(2-(5-fluoropyridin-2-yl)-4-methylpyrazolidin-1-yl)methanone] | 8.44 | 7.28 | 41.25 | 5.66 | – |
| Cn1ncc2c(N)nc3cc(Cl)c(C(=O)N4CC5(CC5)CN4c4ncc(Cl)cc4F)cc3c21 [Example 347, (4-amino-7-chloro-1-methyl-1H-pyrazolo [4,3-c]quinolin-8-yl)(6-(5-chloro-3-fluoropyridin-2-yl)-5,6-diazaspiro[2.4]heptan-5-yl)methanone] | 8.15 | 7.49 | 39.88 | 5.89 | – |
| Cc1cc2nc(N)c3cnn(C)c3c2cc1C(=O)N1CC2(CCC2)CN1c1ncccc1F [Example 348, (4-amino-1,7-dimethyl-1H-pyrazolo[4,3-c]quinolin-8-yl)(7-(3-fluoropyridin-2-yl)-6,7-diazaspiro[3.4]octan-6-yl)methanone] | 8.12 | 8.16 | 30.14 | 6.68 | – |
| Cc1cc2nc(N)c3cnn(C)c3c2cc1C(=O)N1CC(C(F)(F)F)CN1c1ncccc1F (centres unmarked) [Example 350, (4-amino-1,7-dimethyl-1H-pyrazolo[4,3-c]quinolin-8-yl)(2-(3-fluoropyridin-2-yl)-4-(trifluoromethyl)pyrazolidin-1-yl)methanone] | 8.46 | 7.54 | 35.38 | 5.99 | – |
| Cn1ncc2c(N)nc3cc(Cl)c(C(=O)N4CC(C(F)(F)F)CN4c4ncccc4F)cc3c21 (centres unmarked) [Example 351, (4-amino-7-chloro-1-methyl-1H-pyrazolo [4,3-c]quinolin-8-yl)(2-(3-fluoropyridin-2-yl)-4-(trifluoromethyl)pyrazolidin-1-yl) methanone] | 8.31 | 7.07 | 21.59 | 5.74 | – |
| Cc1cc2nc(N)c3cnn(C)c3c2cc1C(=O)N1CC(C(F)(F)F)CN1c1cccc(F)n1 (centres unmarked) [Example 352, (4-amino-1,7-dimethyl-1H-pyrazolo[4,3-c]quinolin-8-yl)(2-(6-fluoropyridin-2-yl)-4-(trifluoromethyl)pyrazolidin-1-yl)meth anone] | 7.90 | 7.11 | 29.42 | 5.64 | – |
| Cn1ncc2c(N)nc3cc(Cl)c(C(=O)N4CC(C(F)(F)F)CN4c4cccc(F)n4)cc3c21 (centres unmarked) [Example 353, (4-amino-7-chloro-1-methyl-1H-pyrazolo [4,3-c]quinolin-8-yl)(2-(6-fluoropyridin-2-yl)-4-(trifluoromethyl)pyrazolidin-1-yl) methanone] | 8.20 | 6.97 | 16.81 | 5.74 | – |
| Cc1cc2nc(N)c3cnn(C)c3c2cc1C(=O)N1CC(=O)CN1c1ncccc1F [Example 354, 1-(4-amino-1,7-dimethyl-1H-pyrazolo[4,3-c]quinoline-8-carbonyl)-2-(3-fluoropyridin-2-yl)pyrazolin-4-one] | 8.42 | 7.21 | 40.76 | 5.60 | – |
| COCC1CN(C(=O)c2cc3c(cc2C)nc(N)c2cnn(C)c23)N(c2ncccc2F)C1 (centres unmarked) [Example 357] | – | 7.80 | 53.25 | 6.07 | 8.47 |
| Cc1cc2nc(N)c3cnn(C)c3c2cc1C(=O)N1CC(CO)CN1c1ncccc1F (centres unmarked) [Example 358, (4-amino-1,7-dimethyl-1H-pyrazolo[4,3-c]quinolin-8-yl)(2-(3-fluoropyridin-2-yl)-4-(hydroxymethyl)pyrazolidin-1-yl)methanone] | 8.17 | 6.52 | >33.00 | < 5.00 | – |
| Cn1ncc2c(N)nc3cc(Cl)c(C(=O)N4CC(CF)CN4c4ncccc4F)cc3c21 (centres unmarked) [Example 359, (4-amino-7-chloro-1-methyl-1H-pyrazolo[4,3-c]quinolin-8-yl)(4-(fluoromethyl)-2-(3-fluoropyridin-2-yl)pyrazolin-1-yl)methanone] | – | 7.30 | 23.50 | 5.93 | 8.57 |
| Cc1cc2nc(N)c3cnn(C)c3c2cc1C(=O)N1CC(C)CN1c1cccc(F)n1 (centres unmarked) [Example 360, (4-amino-1,7-dimethyl-1H-pyrazolo[4,3-c]quinolin-8-yl)(2-(6-fluoropyridin-2-yl)-4-methylpyrazolidin-1-yl)methanone] | 8.28 | 7.64 | 50.74 | 5.93 | – |
| Cc1cc2nc(N)c3cnn(C)c3c2cc1C(=O)N1CC(C)CN1c1cccc(C#N)n1 (centres unmarked) [Example 365, 6-(2-(4-amino-1,7-dimethyl-1H-pyrazolo [4,3-c]quinoline-8-formyl)-4-methylpyrazolidin-1-yl)pyridinecarbonitrile] | 8.49 | 7.46 | 48.37 | 5.77 | – |
| Cc1cc2nc(N)c3cnn(C)c3c2cc1C(=O)N1CC2(CC2)CN1c1ncccc1F [Example 366, (4-amino-1,7-dimethyl-1H-pyrazolo[4,3-c]quinolin-8-yl)(6-(3-fluoropyridin-2-yl)-5,6-diazaspiro[2.4]heptan-5-yl)methanone] | 8.10 | 8.11 | 41.43 | 6.50 | – |
| CC1CN(C(=O)c2ccc3nc(N)c4cnn(C)c4c3c2)N(c2ncccc2F)C1 (centres unmarked) [Example 367, (4-amino-1-methyl-1H-pyrazolo[4,3-c]quinolin-8-yl)(2-(3-fluoropyridin-2-yl)-4-methylpyrazolidin-1-yl)methanone] | 8.39 | 6.97 | 49.62 | 5.28 | – |
| Cc1cc2nc(N)c3cnn(C)c3c2cc1C(=O)N1CC(C)CN1c1ccccn1 (centres unmarked) [Example 368, (4-amino-1,7-dimethyl-1H-pyrazolo[4,3-c]quinolin-8-yl)(4-methyl-2-(pyridin-2-yl)pyrazolidin-1-yl)methanone] | 8.33 | 7.43 | 78.51 | 5.54 | – |
| Cc1cc2nc(N)c3cnn(C)c3c2cc1C(=O)N1CC(C)CN1c1ncccc1Cl (centres unmarked) [Example 369, (4-amino-1,7-dimethyl-1H-pyrazolo[4,3-c]quinolin-8-yl)(2-(3-chloropyridin-2-yl)-4-methylpyrazolidin-1-yl)methanone] | 8.41 | 7.08 | 32.12 | 5.57 | – |
| Cc1cc2nc(N)c3cnn(C)c3c2cc1C(=O)N1CC(C)CN1c1ncccc1Br (centres unmarked) [Example 370, (4-amino-1,7-dimethyl-1H-pyrazolo[4,3-c]quinolin-8-yl)(2-(3-bromopyridin-2-yl) -4-methylpyrazolidin-1-yl)methanone] | 8.24 | 6.93 | 29.42 | 5.46 | – |
| Cc1cc2nc(N)c3cnn(C)c3c2cc1C(=O)N1CC(C)CN1c1cc(F)ccn1 (centres unmarked) [Example 372, (4-amino-1,7-dimethyl-1H-pyrazolo[4,3-c]quinolin-8-yl)(2-(4-fluoropyridin-2-yl)-4-methylpyrazolidin-1-yl)methanone] | 8.47 | 7.08 | 30.42 | 5.60 | – |
| Cc1cc2nc(N)c3cnn(C)c3c2cc1C(=O)N1CCC(C)N1c1ncccn1 (centres unmarked) [Example 374, (4-amino-1,7-dimethyl-1H-pyrazolo[4,3-c]quinolin-8-yl)(3-methyl-2-(pyrimidin-2-yl)pyrazolidin-1-yl)methanone] | 8.09 | 6.68 | – | < 5.00 | – |
| Cc1cc2nc(N)c3cnn(C)c3c2cc1C(=O)N1CCCN1c1ccc(C(F)(F)F)cc1 [Example 377, (4-amino-1,7-dimethyl-1H-pyrazolo[4,3-c]quinolin-8-yl)(2-(4-(trifluoromethyl)phenyl)pyrazolidin-1-yl)methanone] | 8.51 | 6.51 | 13.85 | 5.37 | – |
| Cc1cc2nc(N)c3cnn(C)c3c2cc1C(=O)N1CC(C)CN1c1ccccc1C(F)(F)F (centres unmarked) [Example 378, (4-amino-1,7-dimethyl-1H-pyrazolo[4,3-c]quinolin-8-yl)(4-methyl-2-(2-(trifluoromethyl)phenyl)pyrazolidin-1-yl)methanone] | 8.18 | 6.50 | 21.39 | 5.17 | – |
